Test system: P. falciparum (NF54 or 3D7 strain)
Test: Assay for P. falciparum proliferation in infected human blood cells (SYBR Green)
Format: cell-based, Plasmodium falciparum
Conditions: Plasmodium falciparum, 3D7|NF54, Erythrocyte, in Homo sapiens, 72 h, NF54 or 3D7 infected human erythrocytes, 72 hours; read-out: EC50 (nM), inhibitory efficacy in delaying P. falciparum proliferation in infected human blood cells
Method in brief: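 NF54 or 3D7 parasites in O+ human erythrocytes at 2.5% hematocrit and 0.3% parasitemia final, exposed to compounds 72 h at 37 °C under 93% N2/4% CO2/3% O2.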

SMILES	EC50
Cc1ccnc(N(C)C(=O)c2cn3c(-c4ccc(C(F)(F)F)cc4)cnc3cn2)c1 [Compound 328]	1090 nM
COc1ccc(-c2cnc3cnc(CN(C)c4ccc(C)cn4)cn23)cn1 [Compound 338]	4080 nM

Same assay, conditions: Plasmodium falciparum, Erythrocyte, 72 h, NF54 or 3D7 infected human erythrocytes, 72 hours; read-out: EC50 (nM), inhibitory efficacy in delaying P. falciparum proliferation in infected human blood cells

SMILES	EC50
CN(C(=O)c1cn2c(-c3ccc(C(F)(F)F)cc3)cnc2cn1)c1ccc(C#N)cn1 [Compound 89, N-(5-cyanopyridin-2-yl)-N-methyl-3-[4-(trifluoromethyl)phenyl]imidazo[1,2-a]pyrazine-6-carboxamide]	2070 nM
CN(C(=O)c1cn2c(-c3ccc4cnccc4c3)cnc2cn1)c1ccc(C#N)cc1 [Compound 167, N-(4-cyanophenyl)-3-(isoquinolin-6-yl)-N-methylimidazo[1,2-a]pyrazine-6-carboxamide]	4870 nM
CN(C(=O)c1cn2c(-c3ccc4nn(C)cc4c3)cnc2cn1)c1ccc(C#N)cc1 [Compound 149, N-(4-cyanophenyl)-N-methyl-3-(2-methyl-2H-indazol-5-yl)imidazo[1,2-a]pyrazine-6-carboxamide]	1520 nM
CN(C(=O)c1cn2c(-c3cccc(C#N)c3)cnc2cn1)c1ccc(C#N)cc1 [Compound 191, 3-(3-cyanophenyl)-N-(4-cyanophenyl)-N-methylimidazo[1,2-a]pyrazine-6-carboxamide]	7730 nM
CN(C(=O)c1cn2c(-c3ncc(F)cc3F)cnc2cn1)c1ccc(C#N)cc1 [Compound 29, N-(4-cyanophenyl)-3-(3,5-difluoropyridin-2-yl)-N-methylimidazo[1,2-a]pyrazine-6-carboxamide]	2040 nM
CS(=O)(=O)c1ccc(NC(=O)c2cn3c(-c4ccc(C(F)(F)F)cc4)cnc3cn2)cc1 [Compound 128, N-(4-methanesulfonylphenyl)-3-[4-(trifluoromethyl)phenyl]imidazo[1,2-a]pyrazine-6-carboxamide]	> 10000 nM
Cc1cc(-c2cnc3cnc(C(=O)N(C)c4ccc(C#N)cc4)cn23)ccn1 [Compound 378, N-(4-cyanophenyl)-N-methyl-3-(2-methylpyridin-4-yl)imidazo[1,2-a]pyrazine-6-carboxamide]	> 7030 nM
CN(C(=O)c1cn2c(-c3ccc(C(F)(F)F)cc3)cnc2cn1)c1cccc(F)n1 [Compound 86, N-(6-fluoropyridin-2-yl)-N-methyl-3-[4-(trifluoromethyl)phenyl]imidazo[1,2-a]pyrazine-6-carboxamide]	2010 nM
CN(C)Cc1ccc(-c2cnc3cnc(C(=O)N(C)c4ccc(C#N)cc4)cn23)cc1 [Compound 207, N-(4-cyanophenyl)-3-{4-[(dimethylamino)methyl]phenyl}-N-methylimidazo[1,2-a]pyrazine-6-carboxamide]	4600 nM
CC(=O)Nc1ccc(-c2cnc3cnc(C(=O)N(C)c4ccc(C)cn4)cn23)cn1 [Compound 373, 3-(6-acetamidopyridin-3-yl)-N-methyl-N-(5-methylpyridin-2-yl)imidazo[1,2-a]pyrazine-6-carboxamide]	> 9880 nM
CN(C(=O)c1cn2c(-c3ccc(C(F)(F)F)cc3)cnc2cn1)c1cccc(Br)c1 [Compound 183, N-(3-bromophenyl)-N-methyl-3-[4-(trifluoromethyl)phenyl]imidazo[1,2-a]pyrazine-6-carboxamide]	2400 nM
CN(C(=O)c1cn2c(-c3ccc(N4CCOCC4)cc3)cnc2cn1)c1ccc(Cl)nc1 [Compound 340, N-(6-chloropyridin-3-yl)-N-methyl-3-[4-(morpholin-4-yl)phenyl]imidazo[1,2-a]pyrazine-6-carboxamide]	6850 nM
CNC(=O)c1ccc(-c2cnc3cnc(C(=O)N(C)c4ccc(C#N)cc4)cn23)cn1 [Compound 331, 5-{6-[(4-cyanophenyl)(methyl)carbamoyl]imidazo[1,2-a]pyrazin-3-yl}-N-methylpyridine-2-carboxamide]	1740 nM
Cc1cnc(Cl)c(N(C)C(=O)c2cn3c(-c4ccc(C(F)(F)F)cc4)cnc3cn2)c1 [Compound 220, N-(2-chloro-5-methylpyridin-3-yl)-N-methyl-3-[4-(trifluoromethyl)phenyl]imidazo[1,2-a]pyrazine-6-carboxamide]	4040 nM

More lines, now with the values ahead:

EC50	SMILES
680 nM	O=C(c1cn2c(-c3ccc(C(F)(F)F)cc3)cnc2cn1)N1CCCc2cc(Cl)ccc21 [Compound 218, 6-chloro-1-({3-[4-(trifluoromethyl)phenyl]imidazo[1,2-a]pyrazin-6-yl}carbonyl)-1,2,3,4-tetrahydroquinoline]
128 nM	O=C(c1cn2c(-c3ccc(C(F)(F)F)cc3)cnc2cn1)N1CCCc2cc(F)ccc21 [Compound 111, 6-fluoro-1-({3-[4-(trifluoromethyl)phenyl]imidazo[1,2-a]pyrazin-6-yl}carbonyl)-1,2,3,4-tetrahydroquinoline]
12 nM	CN(C(=O)c1cn2c(-c3ccc4c(cnn4C)c3)cnc2cn1)c1ccc(F)c(F)c1 [Compound 53, N-(3,4-difluorophenyl)-N-methyl-3-(1-methyl-1H-indazol-5-yl)imidazo[1,2-a]pyrazine-6-carboxamide]
176 nM	COC(C)c1ccc(-c2cnc3cnc(C(=O)N(C)c4ccc(C#N)cc4)cn23)cc1 (stereo not shown) [Compound 130, N-(4-cyanophenyl)-3-[4-(1-methoxyethyl)phenyl]-N-methylimidazo[1,2-a]pyrazine-6-carboxamide]
237 nM	CN(C(=O)c1cn2c(-c3ccc(NC(=O)CN)nc3)cnc2cn1)c1ccc(C#N)cc1 [Compound 295, 3-[6-(2-aminoacetamido)pyridin-3-yl]-N-(4-cyanophenyl)-N-methylimidazo[1,2-a]pyrazine-6-carboxamide]
439 nM	CN(C)CCN(C(=O)c1cn2c(-c3ccc(C(F)(F)F)cc3)cnc2cn1)c1ccc(C#N)cc1 [Compound 72, N-(4-cyanophenyl)-N-[2-(dimethylamino)ethyl]-3-[4-(trifluoromethyl)phenyl]imidazo[1,2-a]pyrazine-6-carboxamide]
1130 nM	Cc1ccc(N(C)C(=O)c2cn3c(-c4ccc(C(F)(F)F)cc4)cnc3cn2)cn1 [Compound 277, N-methyl-N-(6-methylpyridin-3-yl)-3-[4-(trifluoromethyl)phenyl]imidazo[1,2-a]pyrazine-6-carboxamide]
876 nM	CN(C(=O)c1cn2c(-c3ccc(OC(C)(C)C(N)=O)cc3)cnc2cn1)c1ccc(C#N)cc1 [Compound 352, 3-[4-(1-carbamoyl-1-methylethoxy)phenyl]-N-(4-cyanophenyl)-N-methylimidazo[1,2-a]pyrazine-6-carboxamide]
1130 nM	Cc1cc(N(C)C(=O)c2cn3c(-c4ccc(C(F)(F)F)cc4)cnc3cn2)ccn1 [Compound 299, N-methyl-N-(2-methylpyridin-4-yl)-3-[4-(trifluoromethyl)phenyl]imidazo[1,2-a]pyrazine-6-carboxamide]
290 nM	CNC(=O)c1ccc(-c2cnc3cnc(C(=O)N(C)c4ccc(F)cc4)cn23)cc1 [Compound 244, N-(4-fluorophenyl)-N-methyl-3-[4-(methylcarbamoyl)phenyl]imidazo[1,2-a]pyrazine-6-carboxamide]
1380 nM	CN(C(=O)c1cn2c(-c3ccc(C(F)(F)F)nc3)cnc2cn1)c1ccc(C#N)cc1 [Compound 187, N-(4-cyanophenyl)-N-methyl-3-[6-(trifluoromethyl)pyridin-3-yl]imidazo[1,2-a]pyrazine-6-carboxamide]
640 nM	CN(C)c1ccc(-c2cnc3cnc(CN(C)c4ccc(Cl)cc4)cn23)cc1 [Compound 37, 4-(6-{[(4-chlorophenyl)(methyl)amino]methyl}imidazo[1,2-a]pyrazin-3-yl)-N,N-dimethylaniline]
491 nM	Cc1cc(N(C)C(=O)c2cn3c(-c4ccc(C(F)(F)F)cc4)cnc3cn2)ccc1Cl [Compound 56, N-(4-chloro-3-methylphenyl)-N-methyl-3-[4-(trifluoromethyl)phenyl]imidazo[1,2-a]pyrazine-6-carboxamide]
454 nM	CC(=O)Nc1ccc(-c2cnc3cnc(C(=O)N(C)c4ccc(Cl)nc4)cn23)cc1 [Compound 279, N-(6-chloropyridin-3-yl)-3-(4-acetamidophenyl)-N-methylimidazo[1,2-a]pyrazine-6-carboxamide]
137 nM	CN(C(=O)c1cn2c(-c3ccc(NC(=O)[C@@H](N)C4CCCCC4)cc3)cnc2cn1)c1ccc(C#N)cc1 [Compound 212, 3-{4-[(2S)-2-amino-2-cyclohexylacetamido]phenyl}-N-(4-cyanophenyl)-N-methylimidazo[1,2-a]pyrazine-6-carboxamide]
293 nM	CN(C(=O)c1cn2c(-c3ccc(C(F)(F)F)cc3)cnc2cn1)c1cc(F)ccn1 [Compound 490, N-(4-fluoropyridin-2-yl)-N-methyl-3-[4-(trifluoromethyl)phenyl]imidazo[1,2-a]pyrazine-6-carboxamide]
947 nM	CN(C)CCOc1ccc(-c2cnc3cnc(C(=O)N(C)c4ccc(C#N)cc4)cn23)cc1 [Compound 284, N-(4-cyanophenyl)-3-{4-[2-(dimethylamino)ethoxy]phenyl}-N-methylimidazo[1,2-a]pyrazine-6-carboxamide]
33 nM	CN(C(=O)c1cn2c(-c3ccc(C(F)(F)F)cc3)cnc2cn1)c1ccc(F)cc1 [Compound 101, N-(4-fluorophenyl)-N-methyl-3-[4-(trifluoromethyl)phenyl]imidazo[1,2-a]pyrazine-6-carboxamide]
206 nM	CN(C(=O)c1cn2c(-c3ccc(Cl)cc3)cnc2cn1)c1ccc(C#N)cc1 [Compound 132, 3-(4-chlorophenyl)-N-(4-cyanophenyl)-N-methylimidazo[1,2-a]pyrazine-6-carboxamide]

Same assay, conditions: Plasmodium falciparum, Erythrocyte, 72 h, read-out: EC50 (nM), inhibitory efficacy in delaying P. falciparum proliferation in infected human blood cells

SMILES	EC50
O=C(Nc1ccc(C(F)(F)F)cc1)c1cn2c(-c3ccc(C(F)(F)F)cc3)cnc2cn1 [Compound 445, N,3-bis[4-(trifluoromethyl)phenyl]imidazo[1,2-a]pyrazine-6-carboxamide]	> 10000 nM

Same assay, conditions: Plasmodium falciparum, Erythrocyte, infected human red blood cells; read-out: EC50, P. falciparum Proliferation Assay

SMILES	EC50
CN(C)CCN(C(=O)c1cn2c(-c3ccc(C(F)(F)F)cc3)cnc2cn1)c1ccc(C#N)cc1 [Compound 72, N-(4-cyanophenyl)-N-[2-(dimethylamino)ethyl]-3-[4-(trifluoromethyl)phenyl]imidazo[1,2-a]pyrazine-6-carboxamide]	< 50 nM
